This passage reports solubility results from patent US9938270B2, “Mono-phosphate salt of 6-fluoro-2-[4-(pyridin-2-yl)but-3-yn-1-yl]imidazo[1,2A]pyridine (dipraglurant) and polymorphs thereof as negative allosteric modulator of MGLU5 receptor” (Addex Pharma S.A., priority 2013, dated 2018).

The solubility is how much of the substance goes into solution per volume. A low value points to a poorly soluble substance.

This series is described as follows: aqueous solubility. To be noted: aqueous medium, aqueous buffer; at all relevant physiological pH. It is filed as physicochemical.

SMILES strings stand for the structures. ≈ marks a conversion by molar mass, not a printed value.

In turn, `Fc1ccc2nc(CCC#Cc3ccccn3)cn2c1.O=P(O)(O)O` [mono-phosphate salt, 6-fluoro-2-[4-(pyridin-2-yl)but-3-yn-1-yl]imidazo[1,2-a]pyridine mono-phosphate salt] had a solubility of 21 to 32.5 mg/mL.

On to `Fc1ccc2nc(CCC#Cc3ccccn3)cn2c1` [free base, 6-Fluoro-2-[4-(pyridin-2-yl)but-3-yn-1-yl]imidazo[1,2-a]pyridine], for which the solubility was determined as 0.5 mg/mL (≈ 1880 µM).
